From ChEMBL document CHEMBL1201862, “PubChem BioAssay data set” (2004)
Active and inactive are the calls of the source.

Legend:
[1] = test system: HEK293; assay: cells; type: functional, cell-based; settings: Homo sapiens
[2] = target: T1, Protein RecA (Mycobacterium tuberculosis, UniProt P9WHJ3); assay: Fluorescence Cell-Free Homogeneous Dose Retest to Identify Inhibitors of RecA-Intein Splicing Activity. [Related pubchem assays (depositor defined):AID2097, AID2223, AID489010, AID492950]; type: functional
T1 sequence (P9WHJ3 whole entry): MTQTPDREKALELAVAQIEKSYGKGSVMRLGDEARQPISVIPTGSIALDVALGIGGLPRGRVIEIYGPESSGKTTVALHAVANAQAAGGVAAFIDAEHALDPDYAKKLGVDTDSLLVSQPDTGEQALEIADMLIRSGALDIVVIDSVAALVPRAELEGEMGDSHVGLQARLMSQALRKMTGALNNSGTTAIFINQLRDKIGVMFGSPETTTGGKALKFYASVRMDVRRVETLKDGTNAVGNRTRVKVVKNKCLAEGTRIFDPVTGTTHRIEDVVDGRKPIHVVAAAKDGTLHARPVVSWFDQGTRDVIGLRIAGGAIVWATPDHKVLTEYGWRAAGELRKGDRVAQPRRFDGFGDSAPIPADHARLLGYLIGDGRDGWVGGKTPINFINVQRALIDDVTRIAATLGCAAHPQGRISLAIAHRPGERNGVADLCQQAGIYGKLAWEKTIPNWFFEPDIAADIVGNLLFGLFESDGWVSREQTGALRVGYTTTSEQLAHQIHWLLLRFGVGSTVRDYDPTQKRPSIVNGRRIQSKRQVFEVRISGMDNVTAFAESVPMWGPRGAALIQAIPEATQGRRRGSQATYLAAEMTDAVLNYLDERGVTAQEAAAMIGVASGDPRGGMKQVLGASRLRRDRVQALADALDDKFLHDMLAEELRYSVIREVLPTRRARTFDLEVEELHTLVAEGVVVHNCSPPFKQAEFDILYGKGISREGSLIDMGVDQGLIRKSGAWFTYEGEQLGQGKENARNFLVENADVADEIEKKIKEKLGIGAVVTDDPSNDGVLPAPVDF

[3] = test system: HEK293; assay: NOD2 signaling inhibitors in MDP-stimulated cells, cell-based, uHTS, luminescence (AID 2001); type: functional; settings: Homo sapiens
[4] = target: Heat shock protein HSP 90-alpha (Homo sapiens, UniProt P07900); type: functional, organism-based
[5] = viability of HCT116 lacking mutant beta-catenin – cell-based, human colon tumor, dose response (AID 1045); type: functional;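 also: HCT116 colon tumor cells with beta catenin knocked out; cells exposed to compound for 60 hours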
[6] = target: T2, Replicative DNA helicase DnaB (Mycobacterium tuberculosis, UniProt P9WMR3); assay: DnaB intein splicing inhibitors, dose response, biochemical, cell-free fluorescence (AID 449749); type: functional
T2 sequence (P9WMR3 whole entry): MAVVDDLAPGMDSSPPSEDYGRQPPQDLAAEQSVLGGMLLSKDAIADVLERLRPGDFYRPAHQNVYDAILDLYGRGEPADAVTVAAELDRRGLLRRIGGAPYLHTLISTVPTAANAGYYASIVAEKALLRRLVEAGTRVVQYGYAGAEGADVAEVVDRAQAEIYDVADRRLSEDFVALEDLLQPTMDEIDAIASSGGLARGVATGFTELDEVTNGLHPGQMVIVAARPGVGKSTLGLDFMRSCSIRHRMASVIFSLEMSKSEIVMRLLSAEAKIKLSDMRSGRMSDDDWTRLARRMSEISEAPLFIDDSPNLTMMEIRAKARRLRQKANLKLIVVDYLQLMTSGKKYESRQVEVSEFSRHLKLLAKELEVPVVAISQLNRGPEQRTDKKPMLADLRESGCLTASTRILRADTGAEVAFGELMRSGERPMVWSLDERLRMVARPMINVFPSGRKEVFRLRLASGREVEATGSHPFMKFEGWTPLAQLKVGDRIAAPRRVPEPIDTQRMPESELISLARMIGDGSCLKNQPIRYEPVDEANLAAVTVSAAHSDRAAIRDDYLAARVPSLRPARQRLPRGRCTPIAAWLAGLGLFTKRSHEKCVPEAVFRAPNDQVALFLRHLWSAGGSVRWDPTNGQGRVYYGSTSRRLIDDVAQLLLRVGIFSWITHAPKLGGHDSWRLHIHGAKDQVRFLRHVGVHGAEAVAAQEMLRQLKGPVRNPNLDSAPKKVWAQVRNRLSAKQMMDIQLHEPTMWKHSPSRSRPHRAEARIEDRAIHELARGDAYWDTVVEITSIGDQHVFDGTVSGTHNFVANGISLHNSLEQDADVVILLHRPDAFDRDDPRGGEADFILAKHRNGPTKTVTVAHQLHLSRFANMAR

[7] = test system: HEK293; assay: cells; type: functional, cell-based; settings: Homo sapiens; remark: listed apart in the source
[8] = viability of PTEN-deleted HCT116 cells – cell-based, HCT116 PTEN knockout, dose response (AID 1047); type: functional;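 also: HCT116 colon tumor cells with PTEN knocked out; cells exposed to compound for 60 hours before readout; potency for loss of cell viability measured by luminescence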
[9] = test system: HEK293; assay: cells; type: functional, cell-based; settings: Homo sapiens; remark: listed apart in the source
[10] = target: Nucleotide-binding oligomerization domain-containing protein 2 (Homo sapiens, UniProt Q9HC29); assay: inhibition of NOD2-driven NF-kB reporter – cell-based, luminescence, uHTS, HEK293 (AID 1566); type: functional
[11] = test system: HEK293; assay: inhibition of NOD1-driven NF-kB reporter – cell-based, luminescence, uHTS, primary screen (AID 1578); type: functional; settings: Homo sapiens
[12] = target: T3, COUP transcription factor 2 (Homo sapiens, UniProt P24468); assay: Luminescence-based cell-based high throughput dose response assay to identify inhibitors of COUP-TFII (NR2F2).; type: functional;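 also: HEK293 cells transiently cotransfected with COUP-TFII expression vector and reporter; luciferase reporter luminescence driven by COUP-TFII from the pX2-168 reporter plasmid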
T3 sequence (P24468 whole entry): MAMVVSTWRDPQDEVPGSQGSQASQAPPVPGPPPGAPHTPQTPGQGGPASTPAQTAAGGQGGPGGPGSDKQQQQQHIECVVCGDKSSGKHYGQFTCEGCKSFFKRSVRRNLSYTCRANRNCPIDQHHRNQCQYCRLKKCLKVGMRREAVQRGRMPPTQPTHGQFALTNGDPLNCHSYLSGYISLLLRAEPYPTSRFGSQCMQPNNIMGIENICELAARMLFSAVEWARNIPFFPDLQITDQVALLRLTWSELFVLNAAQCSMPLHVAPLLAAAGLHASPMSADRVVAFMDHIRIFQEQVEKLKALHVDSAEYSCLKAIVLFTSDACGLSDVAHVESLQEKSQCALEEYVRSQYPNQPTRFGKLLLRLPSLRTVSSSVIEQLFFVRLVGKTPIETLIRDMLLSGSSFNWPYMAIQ

[13] = target: T4, Alkaline phosphatase, tissue-nonspecific isozyme (Homo sapiens, UniProt P05186); assay: potency against alkaline phosphatase TNAP – biochemical, luminescent, dose response, SAR follow-up (AID 1056)
T4 sequence (P05186 whole entry): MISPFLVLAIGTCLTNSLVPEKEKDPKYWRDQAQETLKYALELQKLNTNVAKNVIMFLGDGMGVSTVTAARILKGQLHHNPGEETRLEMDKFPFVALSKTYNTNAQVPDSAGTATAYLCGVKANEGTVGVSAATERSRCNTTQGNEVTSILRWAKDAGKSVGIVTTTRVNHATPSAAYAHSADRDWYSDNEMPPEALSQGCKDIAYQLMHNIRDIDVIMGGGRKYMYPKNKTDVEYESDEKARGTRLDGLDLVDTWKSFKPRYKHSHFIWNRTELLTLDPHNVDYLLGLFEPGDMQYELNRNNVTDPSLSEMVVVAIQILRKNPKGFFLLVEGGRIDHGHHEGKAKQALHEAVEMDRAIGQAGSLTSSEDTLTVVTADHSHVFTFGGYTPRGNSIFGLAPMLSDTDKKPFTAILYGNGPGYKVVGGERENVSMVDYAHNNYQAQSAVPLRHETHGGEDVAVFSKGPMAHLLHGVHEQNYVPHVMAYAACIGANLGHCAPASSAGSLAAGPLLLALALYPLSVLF

[14] = target: Glyceraldehyde-3-phosphate dehydrogenase (Homo sapiens, UniProt P04406)
[15] = target: Alkaline phosphatase, placental type (Homo sapiens, UniProt P05187); assay: human placental alkaline phosphatase inhibition – biochemical, luminescence, confirmation (AID 1512); type: functional
[16] = THP-1 cell cytotoxicity, dose response, cytotoxicity control for non-replicating M. tuberculosis project (AID 489025); type: functional
[17] = target: T5, Heat shock factor protein 1 (Mus musculus, UniProt P38532); assay: enhancement of HSF1-driven luciferase signal – cell-based, NIH3T3, luminescence, dose retest, confirmation (AID 435004); type: functional;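 also: stress induced by proteasome inhibitor MG132 added 30 min after compound; luciferase reporter driven by HSF1 response element in NIH3T3 cells; actives raise luminescence as potentiators of the MG132 stress response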
T5 sequence (P38532 whole entry): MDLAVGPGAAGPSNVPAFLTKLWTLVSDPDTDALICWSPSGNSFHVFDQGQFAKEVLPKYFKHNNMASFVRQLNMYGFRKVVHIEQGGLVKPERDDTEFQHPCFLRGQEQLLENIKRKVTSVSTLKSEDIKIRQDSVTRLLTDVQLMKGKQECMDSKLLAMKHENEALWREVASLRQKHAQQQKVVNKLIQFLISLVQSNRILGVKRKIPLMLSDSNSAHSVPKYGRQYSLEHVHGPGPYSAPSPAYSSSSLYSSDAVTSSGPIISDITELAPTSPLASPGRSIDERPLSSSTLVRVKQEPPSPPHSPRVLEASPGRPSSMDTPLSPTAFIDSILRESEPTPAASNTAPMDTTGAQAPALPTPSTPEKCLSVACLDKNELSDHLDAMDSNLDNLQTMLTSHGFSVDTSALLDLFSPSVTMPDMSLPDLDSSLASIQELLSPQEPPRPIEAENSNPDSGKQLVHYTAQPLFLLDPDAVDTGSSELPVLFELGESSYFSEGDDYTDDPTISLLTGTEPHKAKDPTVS

[18] = Vero E6 cell cytotoxicity, dose response, cytotoxicity control for non-replicating M. tuberculosis project, secondary assay (AID 492998); type: functional, VeroE6; settings: Vero C1008
[19] = cells; type: functional

Chain of Alkaline phosphatase, placental type (P05187 whole entry): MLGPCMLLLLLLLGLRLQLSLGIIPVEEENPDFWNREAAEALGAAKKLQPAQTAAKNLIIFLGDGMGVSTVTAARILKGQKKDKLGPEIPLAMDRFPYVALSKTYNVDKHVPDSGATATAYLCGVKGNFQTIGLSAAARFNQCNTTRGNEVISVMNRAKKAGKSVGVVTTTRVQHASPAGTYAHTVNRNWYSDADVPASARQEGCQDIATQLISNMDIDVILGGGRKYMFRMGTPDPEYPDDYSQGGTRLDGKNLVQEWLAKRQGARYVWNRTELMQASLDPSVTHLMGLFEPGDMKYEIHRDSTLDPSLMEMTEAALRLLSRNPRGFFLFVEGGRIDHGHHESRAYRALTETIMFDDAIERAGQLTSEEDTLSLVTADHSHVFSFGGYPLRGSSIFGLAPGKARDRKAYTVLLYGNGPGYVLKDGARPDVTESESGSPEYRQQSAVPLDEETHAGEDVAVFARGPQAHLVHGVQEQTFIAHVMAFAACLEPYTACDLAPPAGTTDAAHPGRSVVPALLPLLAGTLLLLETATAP
Chain of Nucleotide-binding oligomerization domain-containing protein 2 (Q9HC29 whole entry, the tested form may be a part): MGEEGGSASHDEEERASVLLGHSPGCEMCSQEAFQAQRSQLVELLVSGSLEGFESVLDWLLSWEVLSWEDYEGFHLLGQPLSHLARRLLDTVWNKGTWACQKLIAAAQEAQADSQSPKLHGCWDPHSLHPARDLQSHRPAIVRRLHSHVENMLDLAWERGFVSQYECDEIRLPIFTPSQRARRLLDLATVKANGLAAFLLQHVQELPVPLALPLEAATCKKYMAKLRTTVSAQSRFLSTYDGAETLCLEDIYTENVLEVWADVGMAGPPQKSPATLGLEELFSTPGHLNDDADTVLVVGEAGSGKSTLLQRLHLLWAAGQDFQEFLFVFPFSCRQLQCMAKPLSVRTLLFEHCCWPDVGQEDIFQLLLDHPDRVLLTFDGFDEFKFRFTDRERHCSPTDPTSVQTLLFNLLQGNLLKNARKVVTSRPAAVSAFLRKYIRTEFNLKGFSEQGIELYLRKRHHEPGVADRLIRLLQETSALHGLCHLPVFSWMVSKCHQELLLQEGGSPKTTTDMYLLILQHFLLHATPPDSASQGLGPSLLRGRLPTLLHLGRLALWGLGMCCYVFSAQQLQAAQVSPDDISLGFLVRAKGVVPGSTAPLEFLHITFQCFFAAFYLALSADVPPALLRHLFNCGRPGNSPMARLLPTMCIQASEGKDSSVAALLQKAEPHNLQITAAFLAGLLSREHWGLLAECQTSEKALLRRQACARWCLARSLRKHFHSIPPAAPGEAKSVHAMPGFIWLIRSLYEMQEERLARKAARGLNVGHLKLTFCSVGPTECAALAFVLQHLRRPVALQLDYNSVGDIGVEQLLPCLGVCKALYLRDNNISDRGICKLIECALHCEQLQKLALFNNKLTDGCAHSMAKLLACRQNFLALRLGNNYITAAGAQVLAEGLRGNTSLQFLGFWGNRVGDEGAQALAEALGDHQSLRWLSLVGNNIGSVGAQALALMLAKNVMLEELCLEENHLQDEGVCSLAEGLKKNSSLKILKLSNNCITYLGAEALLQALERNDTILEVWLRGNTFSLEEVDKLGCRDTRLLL
Chain of Glyceraldehyde-3-phosphate dehydrogenase (P04406 whole entry): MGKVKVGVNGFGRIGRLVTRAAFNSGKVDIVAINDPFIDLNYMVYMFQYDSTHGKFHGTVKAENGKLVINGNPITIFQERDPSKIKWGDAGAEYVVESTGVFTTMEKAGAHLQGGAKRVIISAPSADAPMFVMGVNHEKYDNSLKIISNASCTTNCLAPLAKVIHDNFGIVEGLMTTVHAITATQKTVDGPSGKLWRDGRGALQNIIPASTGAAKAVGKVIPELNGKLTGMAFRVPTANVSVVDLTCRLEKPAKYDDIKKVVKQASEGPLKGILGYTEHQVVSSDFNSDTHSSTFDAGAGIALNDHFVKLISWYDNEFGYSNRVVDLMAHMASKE

CC(C)CC(=O)/C(=C\c1ccc(Cl)cc1Cl)n1cncn1
inactive: IC50 [9] > 20 µM | EC50 [10] > 20 µM | EC50 [11] > 20 µM
active: IC50 [1] 4.25 µM | EC50 [2] 11.2 µM | IC50 [3] 7.85 µM | AC50 [4] 2.04 µM | EC50 [5] 4.31 µM | AC50 [6] 11.8 µM | IC50 [7] 9.81 µM | EC50 [8] 4.72 µM

Cc1nc2c(-c3ccc(Cl)cc3)cnn2c(N)c1-c1ccc(F)cc1
active: IC50 [1] 2.34 µM
inactive: IC50 [3] > 20 µM | IC50 [12] > 85.4 µM | IC50 [7] > 20 µM | IC50 [9] > 20 µM | EC50 [10] > 20 µM | EC50 [11] > 20 µM

CCc1ccc(-c2ccc(-c3nc(N)nn3-c3ccccc3)cc2)cc1
> 100 µM (not active): IC50 [14]
inactive: IC50 [13] > 100 µM | IC50 [15] > 100 µM

COc1ccc(C(=O)Cn2c(C)nc([N+](=O)[O-])c2Br)cc1
active: CC50 [16] > 40 µM | EC50 [17] 19.8 µM | CC50 [18] > 20 µM | IC50 [19] 12.1 µM

O=C(N/N=C\c1ccc([N+](=O)[O-])s1)C1COc2ccccc2O1 (centres undefined)
inactive: IC50 [3] 16.2 µM | IC50 [7] > 20 µM
active: IC50 [1] 19.1 µM | CC50 [16] 22.6 µM | CC50 [18] 13.3 µM | IC50 [19] 5.68 µM | EC50 [11] 9.04 µM

CCc1nc(SCC(=O)c2ccc(O)cc2O)n[nH]1
inactive: IC50 [13] > 100 µM | IC50 [15] > 100 µM
